Laboratory results as given in US6856913B1, “Decentralized patient management method” (Swineburn Limited, priority 1998, dated 2005).

Tested on: children diagnosed with ADHD
Assay: SSVEP phase/latency change during the Continuous Performance Task (CPT A-X) before and one hour after stimulant medication
Type: in vivo, human
Details: one hour after medication vs before
Procedure: An example of the invention will now be briefly described with reference to FIGS. 15 and 16. The method was used on patients who are children diagnosed with Attention Deficit […] Disorder (ADHD).
Children diagnosed with ADHD were tested to examine the effects of stimulant medication (methylphenidate or Ritalin) on the amplitude and phase of the steady state visually evoked potential (SSVEP). The children performed two cognitive tasks before the stimulant medication was administered and then repeat the tasks one hour after stimulant medication was administered.
The first task was a low demand vigilance task where the patients were required to press a micro switch on the predictable appearance of the number “5” in the repeated sequence “1, 2, 3, 4, 5”. The second task was known as the A-X version of the Continuous Performance Task (CPT A-X). In this more demanding task, patients were required to press a micro switch on the appearance of the letter “X” if and only if it has been preceded by the letter “A”.
FIGS. 15 and 16 illustrate the spatial distribution of the difference between the mean SSVEP phase, evaluated over the entire CPT A-X task before medication, and the point in time corresponding to the disappearance of the letter “A” in the CPT A-X task after medication.

COC(=O)C(c1ccccc1)C1CCCCN1 (centres unmarked) [methylphenidate]
change in SSVEP phase (latency) at prefrontal sites (FIG. 15, child diagnosed with ADHD and responding to the stimulant medication): large SSVEP latency reduction at prefrontal sites
change in SSVEP phase (latency) at prefrontal sites (FIG. 16, different child diagnosed with ADHD and not responding to stimulant medication): absence of SSVEP latency reduction at prefrontal sites
